Source: patent US10538487B2, “Sulfonylureas and related compounds and use of same” (priority 2015, dated 2020)
Values joined by “and” are separate entries in the source; they are usually repeats but may differ in a detail not shown here. Equal values may be shown once.

Test: Single dose pharmacokinetic study in mice (iv 4 mg/Kg, po 20 mg/Kg), plasma concentration post-dosing
Type: in vivo, mouse
Conditions: mouse
Method: This is advantageous leading to comparatively lower doses or less frequent administration. The procedure followed was: Male C57BL/6 mice were used at 7-9 weeks age with 3 animals per group. Mice were dosed with test compound using single intravenous bolus or oral gavage. Blood samples were taken via submandibular or saphenous vein for analysis of plasma concentrations of compound by LC-MS/MS at the following timepoints: IV (3 mice): 0.083, 0.25, 0.5, 1, 2, 4, 8 and 24 hours post dosing, PO (3 mice): 0.25, 0.5, 1, 2, 4, 8 and 24 hours post dosing. LC-MS/MS method for the quantitative determination of test compound in corresponding biological matrix was developed. […] The results are shown graphically in FIGS. 1A to 1C (MCC950) and FIGS. 2A to 2C (MCC7840).

[1] = IV 4 mg/Kg, individual mice M1-M3, 4 mg/kg
[2] = PO 20 mg/Kg, individual mice M4-M6, 20 mg/kg

`CC(C)n1ccc(S(=O)(=O)NC(=O)Nc2c3c(cc4c2CCC4)CCC3)n1` [MCC_007840_002] showed an MRT last (male, C57BL/6, mouse, plasma, po, 20 mg/kg, PO 20 mg/Kg, mean of 3 mice, read-out: MRT0-last, Mean PO) of 6.43 h, a half-life (male, C57BL/6, mouse, plasma, po, 20 mg/kg, PO 20 mg/Kg, mean of 3 mice, read-out: T1/2, Mean PO (converted)) of 5.02 h and a Tmax (male, C57BL/6, mouse, plasma, po, 20 mg/kg, PO 20 mg/Kg, mean of 3 mice, read-out: Tmax, Mean PO) of 0.25 h. For the same compound, the bioavailability (male, C57BL/6, plasma, PO 20 mg/Kg vs IV 4 mg/Kg, Mean PO, read-out: Bioavailability) was 67.2%, the “Plasma concentration, IV Time 5 min” value (IV 4 mg/Kg, 5 min post dosing, individual mice M1-M3, 4 mg/kg) was 41900 ng/mL and 38600 ng/mL and the “Plasma concentration, IV Time 0.250 h” value (IV 4 mg/Kg, 0.250 h post dosing, individual mice M1-M3, 4 mg/kg) was 29300 ng/mL. The “Plasma concentration, IV Time 0.500 h” value (IV 4 mg/Kg, 0.500 h post dosing, individual mice M1-M3, 4 mg/kg) was 25200 ng/mL and 24500 ng/mL, the “Plasma concentration, IV Time 1.00 h” value (IV 4 mg/Kg, 1.00 h post dosing, individual mice M1-M3, 4 mg/kg) was 18900 ng/mL and 17200 ng/mL and the “Plasma concentration, IV Time 2.00 h” value (IV 4 mg/Kg, 2.00 h post dosing, individual mice M1-M3, 4 mg/kg) was 14700 ng/mL and 19900 ng/mL. The “Plasma concentration, IV Time 4.00 h” value (IV 4 mg/Kg, 4.00 h post dosing, individual mice M1-M3, 4 mg/kg) was 8550 ng/mL and 8590 ng/mL, the “Plasma concentration, IV Time 8.00 h” value (IV 4 mg/Kg, 8.00 h post dosing, individual mice M1-M3, 4 mg/kg) was 3360 ng/mL and 4440 ng/mL and the “Plasma concentration, IV Time 24.0 h” value (IV 4 mg/Kg, 24.0 h post dosing, individual mice M1-M3, 4 mg/kg) was 122 ng/mL and 130 ng/mL. For the same compound, the Tlast (IV 4 mg/Kg, individual mice M1-M3) was 24.0 h, the AUC0-inf [1] was 105.283 µg·h/mL and 116.833 µg·h/mL and the AUC0-last [1] was 104.705 µg·h/mL and 116.222 µg·h/mL. The AUCExtra [1] was 0.770% and 0.549% and 0.523%, the AUMCExtra [1] was 5.23% and 3.81% and 3.41% and the C0 [1] was 50100 ng/mL and 44301 ng/mL. For the same compound, the Cl [1] was 0.633 mL/min/kg and 0.571 mL/min/kg, the MRT0-inf [1] was 4.15 h and 4.40 h and the MRT0-last [1] was 4.01 h and 4.28 h. The T1/2 [1] was 3.29 h and 3.26 h, the Vdss [1] was 0.158 L/kg and 0.151 L/kg and the “AUCExtra, Mean IV” value (IV 4 mg/Kg, mean of 3 mice) was 0.614%. The “AUMCExtra, Mean IV” value (IV 4 mg/Kg, mean of 3 mice) was 4.15%, the “C0, Mean IV” value (IV 4 mg/Kg, mean of 3 mice) was 52245 ng/mL and the “Tlast, Mean IV” value (IV 4 mg/Kg, mean of 3 mice) was 24.0 h. For the same compound, the “Plasma concentration, PO Time 0.250 h” value (PO 20 mg/Kg, 0.250 h post dosing, individual mice M4-M6, 20 mg/kg) was 84300 ng/mL and 27400 ng/mL and 69700 ng/mL, the “Plasma concentration, PO Time 0.500 h” value (PO 20 mg/Kg, 0.500 h post dosing, individual mice M4-M6, 20 mg/kg) was 70300 ng/mL and 24000 ng/mL and 56600 ng/mL and the “Plasma concentration, PO Time 1.00 h” value (PO 20 mg/Kg, 1.00 h post dosing, individual mice M4-M6, 20 mg/kg) was 60400 ng/mL and 20900 ng/mL and 45700 ng/mL. For the same compound, the “Plasma concentration, PO Time 2.00 h” value (PO 20 mg/Kg, 2.00 h post dosing, individual mice M4-M6, 20 mg/kg) was 54900 ng/mL and 19100 ng/mL and 53800 ng/mL, the “Plasma concentration, PO Time 4.00 h” value (PO 20 mg/Kg, 4.00 h post dosing, individual mice M4-M6, 20 mg/kg) was 32900 ng/mL and 14100 ng/mL and 32800 ng/mL and the “Plasma concentration, PO Time 8.00 h” value (PO 20 mg/Kg, 8.00 h post dosing, individual mice M4-M6, 20 mg/kg) was 14100 ng/mL and 12800 ng/mL and 29900 ng/mL. The “Plasma concentration, PO Time 24.0 h” value (PO 20 mg/Kg, 24.0 h post dosing, individual mice M4-M6, 20 mg/kg) was 660 ng/mL and 2370 ng/mL and 1370 ng/mL, the Tlast (PO 20 mg/Kg, individual mice M4-M6) was 24.0 h and the AUC0-inf [2] was 251.697 µg·h/mL and 466.063 µg·h/mL. The AUC0-last [2] was 364.947 µg·h/mL and 226.687 µg·h/mL and 457.808 µg·h/mL, the AUCExtra [2] was 0.922% and 9.94% and 1.77% and the AUMCExtra [2] was 5.35% and 32.1% and 7.78%. The Cmax [2] was 84300 ng/mL and 27400 ng/mL and 69700 ng/mL, the MRT0-last [2] was 8.07 h and 6.41 h and the T1/2 [2] was 3.57 h and 7.31 h and 4.18 h. The “AUCExtra, Mean PO” value (PO 20 mg/Kg, mean of 3 mice) was 4.21%, the “AUMCExtra, Mean PO” value (PO 20 mg/Kg, mean of 3 mice) was 15.1% and the “Tlast, Mean PO” value (PO 20 mg/Kg, mean of 3 mice) was 24.0 h.
